Source: patent US9988400B2 (Genentech, Inc., priority 2013, dated 2018)

Molecular target: T1, HEK cells stably transfected with tetracycline inducible hNR1 and hNR2A (Homo sapiens, UniProt Q05586+Q12879)
T1 construct: expressed in transfected cells; host or cells: HEK cells, stably transfected, tetracycline/doxycycline inducible
Assay: Assay 1: Cell-Based Assay, cytosolic calcium response to positive allosteric modulators (with 30 μM glycine and 300 nM L-glutamate, EC30)
Details: Table 2; for Max %: responses scaled relative to 100 μM L-glutamate maximal response (100%) and 0 μM L-glutamate (0%); for EC50: cytosolic calcium response, with 30 μM glycine and 300 nM L-glutamate (EC30), — = no plateau was reached
Summary of the method: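 Cells induced 24 h with 7.5 μg mL^−1 doxycycline plus 500 μM (+)-ketamine, loaded 60 min at 37 °C with calcium dye in Mg-free HBSS (1.8 mM Ca, probenecid, 10 μM (+)-ketamine, pH 7.15). Peak RFU over 5 min after compound addition, scaled to 100 μM L-glutamate (100%) and 0 μM (0%); four-parameter Hill fit for EC50, max % if no plateau.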

T1 sequence (Q12879 23-1464, other chains not shown): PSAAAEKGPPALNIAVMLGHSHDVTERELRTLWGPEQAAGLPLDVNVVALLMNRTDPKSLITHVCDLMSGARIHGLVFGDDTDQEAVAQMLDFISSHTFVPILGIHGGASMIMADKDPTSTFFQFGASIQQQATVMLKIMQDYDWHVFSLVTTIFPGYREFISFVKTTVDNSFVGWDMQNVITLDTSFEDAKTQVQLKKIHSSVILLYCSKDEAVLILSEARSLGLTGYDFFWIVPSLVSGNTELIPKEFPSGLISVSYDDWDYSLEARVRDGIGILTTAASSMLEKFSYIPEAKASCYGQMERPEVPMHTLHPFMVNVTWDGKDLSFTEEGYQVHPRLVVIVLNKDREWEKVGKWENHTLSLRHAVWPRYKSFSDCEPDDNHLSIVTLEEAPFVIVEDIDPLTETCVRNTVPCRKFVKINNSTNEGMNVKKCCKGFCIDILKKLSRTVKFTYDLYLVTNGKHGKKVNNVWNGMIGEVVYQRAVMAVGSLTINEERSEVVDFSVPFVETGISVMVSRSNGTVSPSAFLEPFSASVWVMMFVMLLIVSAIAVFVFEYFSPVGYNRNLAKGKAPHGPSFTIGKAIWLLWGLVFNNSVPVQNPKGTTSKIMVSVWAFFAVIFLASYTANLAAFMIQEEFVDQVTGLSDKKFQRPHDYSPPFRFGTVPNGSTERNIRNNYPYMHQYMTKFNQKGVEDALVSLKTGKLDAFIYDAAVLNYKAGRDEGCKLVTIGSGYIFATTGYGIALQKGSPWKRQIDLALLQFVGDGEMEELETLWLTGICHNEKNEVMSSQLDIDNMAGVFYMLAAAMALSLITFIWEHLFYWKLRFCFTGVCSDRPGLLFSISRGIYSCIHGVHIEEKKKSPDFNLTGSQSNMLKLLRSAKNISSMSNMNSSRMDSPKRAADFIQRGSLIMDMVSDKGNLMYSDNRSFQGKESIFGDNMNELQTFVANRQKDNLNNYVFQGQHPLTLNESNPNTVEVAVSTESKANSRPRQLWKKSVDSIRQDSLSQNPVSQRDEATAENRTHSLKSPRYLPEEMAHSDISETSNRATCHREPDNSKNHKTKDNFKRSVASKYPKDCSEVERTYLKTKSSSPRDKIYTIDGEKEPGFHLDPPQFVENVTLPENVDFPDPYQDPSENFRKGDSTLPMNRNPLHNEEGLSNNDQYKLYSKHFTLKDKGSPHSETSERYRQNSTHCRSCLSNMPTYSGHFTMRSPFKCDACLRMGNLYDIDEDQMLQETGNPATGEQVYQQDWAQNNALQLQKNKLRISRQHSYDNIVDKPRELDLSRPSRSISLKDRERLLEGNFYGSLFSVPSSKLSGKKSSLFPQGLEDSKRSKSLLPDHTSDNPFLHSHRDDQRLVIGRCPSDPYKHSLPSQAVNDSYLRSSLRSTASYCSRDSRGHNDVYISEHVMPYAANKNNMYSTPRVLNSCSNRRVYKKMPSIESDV

Row | Max % [%] | EC50 [µM] | Compound
1 | 42.2 | 5.7 | Cc1sc2nc(COc3ccc(F)cc3)cc(=O)n2c1-c1cncnc1 [Example 4.5, 7-((4-fluorophenoxy)methyl)-2-methyl-3-(pyrimidin-5-yl)-5H-thiazolo[3,2-a]pyrimidin-5-one]
2 | 40.8 | 4.8 | Cc1sc2nc(COc3ccc(F)cc3)cc(=O)n2c1-c1ncco1 [Example 4.11, 7-((4-fluorophenoxy)methyl)-2-methyl-3-(oxazol-2-yl)-5H-thiazolo[3,2-a]pyrimidin-5-one]
3 | 50 | 13.9 | Cc1sc2nc(COc3ccc(F)cc3)cc(=O)n2c1-c1ccn[nH]1 [Example 4.15, 7-((4-fluorophenoxy)methyl)-2-methyl-3-(1H-pyrazol-5-yl)-5H-thiazolo[3,2-a]pyrimidin-5-one]
4 | 145.1 | 0.56 | CCN(Cc1cc(=O)n2c(-c3cncnc3)c(C)sc2n1)c1ccc(F)cc1 [Example 5.1, 7-[(N-ethyl-4-fluoro-anilino)methyl]-2-methyl-3-pyrimidin-5-yl-thiazolo[3,2-a]pyrimidin-5-one]
5 | 148 | 5.7 | Cc1sc2nc(CN(C)c3ccc(F)cc3)cc(=O)n2c1-c1cncnc1 [Example 5.2, 7-(((4-fluorophenyl)(methyl)amino)methyl)-2-methyl-3-(pyrimidin-5-yl)-5H-thiazolo[3,2-a]pyrimidin-5-one]
6 | 177 | 2.2 | Cc1sc2nc(CN(CC(F)(F)F)c3ccc(F)cc3)cc(=O)n2c1-c1cncnc1 [Example 5.3, 7-(((4-fluorophenyl)(2,2,2-trifluoroethyl)amino)methyl)-2-methyl-3-(pyrimidin-5-yl)-5H-thiazolo [3,2-a]pyrimidin-5-one]
7 | 172 | 0.956 | CCN(Cc1cc(=O)n2c(-c3cncnc3)c(C)sc2n1)c1ccc(F)c(F)c1 [Example 5.4, 7-(((3,4-difluorophenyl)(ethyl)amino)methyl)-2-methyl-3-(pyrimidin-5-yl)-5H-thiazolo[3,2-a]pyrimidin-5-one]
8 | 168 | 2.4 | CCN(Cc1cc(=O)n2c(-c3cncnc3)c(C)sc2n1)c1cccc(F)c1 [Example 5.5, 7-((ethyl(3-fluorophenyl)amino)methyl)-2-methyl-3-(pyrimidin-5-yl)-5H-thiazolo[3,2-a]pyrimidin-5-one]
9 | 164 | 0.766 | Cc1sc2nc(CN(CC(F)F)c3ccc(F)cc3)cc(=O)n2c1-c1cncnc1 [Example 5.6, 7-(((2,2-difluoroethyl)(4-fluorophenyl)amino)methyl)-2-methyl-3-(pyrimidin-5-yl)-5H-thiazolo[3,2-a] pyrimidin-5-one]
10 | 156 | 0.669 | CCN(Cc1cc(=O)n2c(-c3nccs3)c(C)sc2n1)c1ccc(F)cc1 [Example 5.8, 7-((ethyl(4-fluorophenyl)amino)methyl)-2-methyl-3-(thiazol-2-yl)-5H-thiazolo[3,2-a]pyrimidin-5-one]
11 | 143 | 1.3 | CCN(Cc1cc(=O)n2c(-c3cccs3)c(C)sc2n1)c1ccc(F)cc1 [Example 5.9, 7-((ethyl(4-fluorophenyl)amino)methyl)-2-methyl-3-(thiophen-2-yl)-5H-thiazolo[3,2-a]pyrimidin-5-one]
12 | 133 | 18 | CCN(Cc1cc(=O)n2c(-c3cncnc3)c(C)sc2n1)c1cccc(C#N)c1 [Example 5.10, 3-(ethyl((2-methyl-5-oxo-3-(pyrimidin-5-yl)-5H-thiazolo [3,2-a]pyrimidin-7-yl)methyl)amino)benzonitrile]
13 | 118 | 2.9 | CCN(Cc1cc(=O)n2c(-c3cccnc3N)c(C)sc2n1)c1ccc(F)cc1 [Example 5.11, 3-(2-aminopyridin-3-yl)-7-((ethyl(4-fluorophenyl)amino)methyl)-2-methyl-5H-thiazolo[3,2-a]pyrimidin-5-one]

The next lines start with the molecule.

Row | Compound | Max % [%] | EC50 [µM]
14 | CCNC(=O)c1c(C(F)(F)F)sc2nc(COc3ccc(F)cc3)cc(=O)n12 [Example 3.4, N-Ethyl-7-(4-fluorophenoxymethyl)-5-oxo-2-(trifluoromethyl)-5H-[1,3]thiazolo[3,2-a]pyrimidine-3-carboxamide] | 44.6 | –
15 | CNC(=O)c1csc2nc(COc3ccc(F)cc3)cc(=O)n12 [Example 3.5, 7-((4-fluorophenoxy)methyl)-N-methyl-5-oxo-5H-thiazolo[3,2-a]pyrimidine-3-carboxamide] | 65.6 | –
16 | CCNC(=O)c1c(C)sc2nc(COc3ccc(F)cn3)cc(=O)n12 [Example 3.6, N-ethyl-7-[[(5-fluoropyridin-2-yl)oxy]methyl]-2-methyl-5-oxo-5H-[1,3]thiazolo[3,2-a]pyrimidine-3-carboxamide] | 68 | –
17 | Cc1sc2nc(COc3ccc(F)cc3)cc(=O)n2c1-c1nnc[nH]1 [Example 4.16, 7-((4-fluorophenoxy)methyl)-2-methyl-3-(4H-1,2,4-triazol-3-yl)-5H-thiazolo[3,2-a]pyrimidin-5-one] | 46.2 | –
18 | Cc1sc2nc(COc3ccc(F)cc3)cc(=O)n2c1C1CC1 [Example 4.17, 3-cyclopropyl-7-[(4-fluorophenoxy)methyl]-2-methyl-thiazolo[3,2-a]pyrimidin-5-one] | 40.3 | –
19 | Cc1sc2nc(COc3ccc(F)cc3)cc(=O)n2c1C1CC1C (stereo not shown) [Example 4.25, 7-(4-Fluorophenoxymethyl)-2-methyl-3-(2-methylcyclopropyl)-5H-[1,3]thiazolo[3,2-a]pyrimidin-5-one] | 109 | 2.8
20 | COCC1CC1c1c(C)sc2nc(COc3ccc(F)cc3)cc(=O)n12 (stereo not shown) [Example 4.27, 7-(4-Fluorophenoxymethyl)-3-[2-(methoxymethyl)cyclopropyl]-2-methyl-5H-[1,3]thiazolo[3,2-a]pyrimidin-5-one] | 103 | –
21 | Cc1sc2nc(COc3ccc(F)cc3)cc(=O)n2c1C1CC1CF (stereo not shown) [Example 4.28, 3-(2-(fluoromethyl)cyclopropyl)-7-((4-fluorophenoxy)methyl)-2-methyl-5H-thiazolo[3,2-a]pyrimidin-5-one] | 89 | 3.4
22 | Cc1sc2nc(COc3ccc(F)cc3)cc(=O)n2c1CCCO [Example 4.30, 7-(4-Fluorophenoxymethyl)-3-(3-hydroxypropyl)-2-methyl-5H-[1,3]thiazolo[3,2-a]pyrimidin-5-one] | 75.4 | 15.5
23 | COCc1c(C)sc2nc(COc3ccc(F)cc3)cc(=O)n12 [Example 4.31, 7-(4-Fluorophenoxymethyl)-3-(methoxymethyl)-2-methyl-5H-[1,3]thiazolo[3,2-a]pyrimidin-5-one] | 43.3 | –
24 | Cc1sc2nc(COc3ccc(F)cc3)cc(=O)n2c1C1(O)COC1 [Example 4.32, 7-((4-fluorophenoxy)methyl)-3-(3-hydroxyoxetan-3-yl)-2-methyl-5H-thiazolo[3,2-a]pyrimidin-5-one] | 50.2 | –
25 | Cc1sc2nc(COc3ccc(F)cc3)cc(=O)n2c1C(C)CCO (stereo not shown) [Example 4.33, 7-(4-Fluorophenoxymethyl)-3-(4-hydroxybutan-2-yl)-2-methyl-5H-[1,3]thiazolo[3,2-a]pyrimidin-5-one] | 121 | 13.8
26 | Cc1sc2nc(COc3ccc(F)cc3)cc(=O)n2c1C1CC1C(C)(C)O (stereo not shown) [Example 4.34, 7-(4-Fluorophenoxymethyl)-3-[2-(2-hydroxypropan-2-yl)cyclopropyl]-2-methyl-5H-[1.3]thiazolo[3,2-a]pyrimidin-5-one] | 49.2 | –
